Assay results: patent US6387950B2, “Treatment of tumors with RARα selective retinoid compounds in combination with other anti-tumor agents” (Allergan Sales, Inc., priority 2000, dated 2002)

Legend:
RARα receptors = molecular target: T1, RARα receptors (Homo sapiens, UniProt P10276); experiment: ligand binding assay; conditions: receptor read as RARα from the sentence
T1 construct: made in house; used as extract protein
T1 sequence (P10276 1-462): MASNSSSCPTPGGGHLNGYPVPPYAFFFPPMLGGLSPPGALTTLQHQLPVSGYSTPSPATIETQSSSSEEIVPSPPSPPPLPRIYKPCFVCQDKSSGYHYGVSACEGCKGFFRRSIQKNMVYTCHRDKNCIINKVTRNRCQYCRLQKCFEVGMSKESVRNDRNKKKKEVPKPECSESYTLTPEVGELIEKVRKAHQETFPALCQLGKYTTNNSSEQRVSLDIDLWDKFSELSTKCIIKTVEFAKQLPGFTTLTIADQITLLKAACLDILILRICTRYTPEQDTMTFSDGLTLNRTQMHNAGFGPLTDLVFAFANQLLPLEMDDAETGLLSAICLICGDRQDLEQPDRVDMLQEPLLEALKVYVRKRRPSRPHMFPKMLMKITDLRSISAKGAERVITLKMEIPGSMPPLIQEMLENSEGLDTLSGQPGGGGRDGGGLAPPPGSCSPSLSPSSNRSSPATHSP
Procedure: All binding assays were performed in a similar fashion. All six receptor types were derived from the expressed receptor type (RAR α, β, γ and RXR α, β, γ) expressed in Baculovirus. Stock solutions of all compounds were prepared as 10 mM ethanol solutions and serial dilutions carried out into 1:1 DMSO; ethanol. Assay buffers consisted of the following for all six receptor assays: 8% glycerol. 120 mM KCl. 8 mM Tris. 5 mM CHAPS 4 mM DTT and 0.24 mM PMSF. pH-7.4@room temperature.
All receptor biding assays were performed in the same manner. The final assay volume was 250 μl and contained from 10-40 μg of extract protein depending on receptor being assayed along with 5 nM of [^3H] all-trans retinoic acid or 10 nM [^3H] 9-cis retinoic acid and varying concentrations of competing ligand at concentrations that ranged from 0-10^−5M. The assays were formatted for a 96 well minitube system. Incubations were carried out at 4° C. until equilibrium was achieved. […] The amount of receptor-ligand complex was determined by liquid scintillation counting of hydroxyapitite pellet.
After correcting for non-specific binding, IC50 values were determined. […] The IC50 value was determined graphically from a loglogit plot of the data. The […] were determined by application of the Cheng-Prussof equation to the IC50 values, the labeled ligand concentration and the Kd of the labeled ligand. […]

RARγ receptors = molecular target: T2, RARγ receptors (Homo sapiens, UniProt P13631); experiment: chimeric receptor transactivation assay, RARγ; type: cell-based; conditions: agonist activity
T2 sequence (P13631 185-419 limits assumed): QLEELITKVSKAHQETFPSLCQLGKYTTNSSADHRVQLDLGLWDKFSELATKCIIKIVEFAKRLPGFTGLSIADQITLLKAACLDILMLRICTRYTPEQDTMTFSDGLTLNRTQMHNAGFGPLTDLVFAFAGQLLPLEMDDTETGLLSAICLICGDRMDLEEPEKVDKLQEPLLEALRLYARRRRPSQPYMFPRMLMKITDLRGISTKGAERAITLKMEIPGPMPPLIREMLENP
Text: (§1) For example, a chimeric receptor transactivation assay which tests for agonist-like activity in the RARα, RARβ, RARγ, RXRα receptor subtypes, and which is based on work published by Feigner P. L. and Holm M. (1989) Focus, 112 is described in detail in U.S. Pat. No. 5,455,265. The specification of U.S. Pat. No. 5,455,265 is hereby expressly incorporated by reference.
(§2) The results obtained in this assay are expressed in EC50 numbers, as they are also in the chimeric receptor transactivation assay.

RARβ receptors = molecular target: T3, RARβ receptors (Homo sapiens, UniProt P10826); experiment: chimeric receptor transactivation assay, RARβ; type: cell-based; conditions: agonist activity
T3 sequence (P10826 183-417 limits assumed): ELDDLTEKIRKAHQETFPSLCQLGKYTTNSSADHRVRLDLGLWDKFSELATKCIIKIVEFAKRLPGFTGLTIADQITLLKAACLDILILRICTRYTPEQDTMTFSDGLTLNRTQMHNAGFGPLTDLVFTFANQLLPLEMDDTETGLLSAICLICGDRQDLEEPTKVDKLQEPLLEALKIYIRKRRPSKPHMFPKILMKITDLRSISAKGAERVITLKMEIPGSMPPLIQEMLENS
Text: as §1, §2

Compound: CC1(C)CCC(C)(C)c2c1cc(C(=O)Nc1cc(F)c(C(=O)O)c(F)c1)c(O)c2Cl [Compound 2, 2,6-Difluoro-4-[(3-hydroxy-4-chloro-5,5,8 8-tetramethyl-5,6,7,8-tetrahydronaphthalene-2-carbonyl) -amino]-benzoic acid]
- Kd (RARα receptors): 0.005 µM
- EC50 (RARγ receptors): > 10 µM
- EC50 (RARβ receptors): > 10 µM
